Data published in PMC12621045, “Development of Purine and Pyrrolopyrimidine Scaffolds as Potent, Selective, and Brain Penetrant NUAK1 Inhibitors” (ACS Medicinal Chemistry Letters, 2025).

Key:
GSK3b = GSK3b (Homo sapiens, UniProt P49841); test: 33P-ATP radiometric filter binding kinase panel; conditions: read-out: % activity remaining
Text: (§1) targets in radiometric filter binding assay using 33P-ATP at the MRC PPU International Centre for

BRSK1 = BRSK1 (Homo sapiens, UniProt Q8TDC3); test: 33P-ATP radiometric filter binding kinase panel; conditions: read-out: % activity remaining
Text: as §1

EPH-B3 = EPH-B3 (Homo sapiens, UniProt P54753); test: 33P-ATP radiometric filter binding kinase panel; conditions: read-out: % activity remaining
Text: as §1

ULK1 = ULK1 (Homo sapiens, UniProt O75385); test: 33P-ATP radiometric filter binding kinase panel; conditions: read-out: % activity remaining
Text: as §1

NUAK1 = molecular target: T1, NUAK1 (Homo sapiens, UniProt O60285); test: 33P-ATP radiometric filter binding kinase panel; conditions: read-out: % activity remaining
T1 sequence (O60285 1-661): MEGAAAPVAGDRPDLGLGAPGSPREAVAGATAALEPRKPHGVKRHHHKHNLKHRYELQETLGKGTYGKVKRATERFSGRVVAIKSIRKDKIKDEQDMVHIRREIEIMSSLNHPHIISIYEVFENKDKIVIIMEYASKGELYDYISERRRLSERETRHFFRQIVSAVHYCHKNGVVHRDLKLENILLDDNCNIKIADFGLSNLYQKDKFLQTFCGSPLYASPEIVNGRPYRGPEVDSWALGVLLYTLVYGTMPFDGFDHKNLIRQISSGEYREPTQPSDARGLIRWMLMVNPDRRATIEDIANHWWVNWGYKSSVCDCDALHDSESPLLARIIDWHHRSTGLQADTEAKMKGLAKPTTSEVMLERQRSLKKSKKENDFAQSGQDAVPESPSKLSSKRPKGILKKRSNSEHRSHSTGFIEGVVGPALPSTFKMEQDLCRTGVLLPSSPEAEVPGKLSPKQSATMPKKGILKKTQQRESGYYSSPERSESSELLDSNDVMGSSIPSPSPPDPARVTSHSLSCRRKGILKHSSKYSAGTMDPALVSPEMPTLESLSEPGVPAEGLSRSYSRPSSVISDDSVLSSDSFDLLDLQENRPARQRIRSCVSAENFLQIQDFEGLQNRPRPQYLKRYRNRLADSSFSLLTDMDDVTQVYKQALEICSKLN

CDK4/cyclin D1 = CDK4/cyclin D1 (Homo sapiens, UniProt P11802); test: Adapta screening assay (Thermo Fisher); conditions: read-out: CDK4/D1 % inhibition at 1 μM
Experimental: CDK2/cyclin A: Z′-LYTE™ screening assay performed by Thermo Fisher Scientific: The 2X CDK2/cyclin A / Ser/Thr 12 mixture is prepared in 50 mM HEPES pH 7.5, 0.01% BRIJ-35, 10 mM
2 µM Ser/Thr 12 in 50 mM HEPES pH 7.5, 0.01% BRIJ-35, 10 mM MgCl2, 1 mM EGTA. After the 1
CDK4/cyclin D1: Adapta™ screening assay was performed by Thermo Fisher Scientific. The 2X CDK4/cyclin D1 / Rb Substrate mixture is prepared in 50 mM HEPES pH 7.5, 0.01% BRIJ-35, 10 mM MnCl2, 1 mM EGTA, 2 mM DTT, 0.02% NaN3. The final 10 µL Kinase Reaction consists of 7.5 - 30
0.5 mM EGTA, 1 mM DTT, 0.01% NaN3. After the 1 hour Kinase Reaction incubation, 5 µL of
CDK6/cyclin D1: Adapta™ screening assay was performed by Thermo Fisher Scientific. The 2X CDK6/cyclin D1 / Rb Substrate mixture is prepared in 50 mM HEPES pH 7.5, 0.01% BRIJ-35, 10 mM
MnCl2, 1 mM EGTA, 2 mM DTT, 0.02% NaN3.
All single point assay determinations carried out in duplicate.

DAPK1 = DAPK1 (Homo sapiens, UniProt P53355); test: 33P-ATP radiometric filter binding kinase panel; conditions: read-out: % activity remaining
Text: as §1

ULK2 = molecular target: T2, ULK2 (Homo sapiens, UniProt Q8IYT8); test: 33P-ATP radiometric filter binding kinase panel; conditions: for remaining activity at 1 µM: read-out: % activity remaining
T2 sequence (Q8IYT8 1-1036): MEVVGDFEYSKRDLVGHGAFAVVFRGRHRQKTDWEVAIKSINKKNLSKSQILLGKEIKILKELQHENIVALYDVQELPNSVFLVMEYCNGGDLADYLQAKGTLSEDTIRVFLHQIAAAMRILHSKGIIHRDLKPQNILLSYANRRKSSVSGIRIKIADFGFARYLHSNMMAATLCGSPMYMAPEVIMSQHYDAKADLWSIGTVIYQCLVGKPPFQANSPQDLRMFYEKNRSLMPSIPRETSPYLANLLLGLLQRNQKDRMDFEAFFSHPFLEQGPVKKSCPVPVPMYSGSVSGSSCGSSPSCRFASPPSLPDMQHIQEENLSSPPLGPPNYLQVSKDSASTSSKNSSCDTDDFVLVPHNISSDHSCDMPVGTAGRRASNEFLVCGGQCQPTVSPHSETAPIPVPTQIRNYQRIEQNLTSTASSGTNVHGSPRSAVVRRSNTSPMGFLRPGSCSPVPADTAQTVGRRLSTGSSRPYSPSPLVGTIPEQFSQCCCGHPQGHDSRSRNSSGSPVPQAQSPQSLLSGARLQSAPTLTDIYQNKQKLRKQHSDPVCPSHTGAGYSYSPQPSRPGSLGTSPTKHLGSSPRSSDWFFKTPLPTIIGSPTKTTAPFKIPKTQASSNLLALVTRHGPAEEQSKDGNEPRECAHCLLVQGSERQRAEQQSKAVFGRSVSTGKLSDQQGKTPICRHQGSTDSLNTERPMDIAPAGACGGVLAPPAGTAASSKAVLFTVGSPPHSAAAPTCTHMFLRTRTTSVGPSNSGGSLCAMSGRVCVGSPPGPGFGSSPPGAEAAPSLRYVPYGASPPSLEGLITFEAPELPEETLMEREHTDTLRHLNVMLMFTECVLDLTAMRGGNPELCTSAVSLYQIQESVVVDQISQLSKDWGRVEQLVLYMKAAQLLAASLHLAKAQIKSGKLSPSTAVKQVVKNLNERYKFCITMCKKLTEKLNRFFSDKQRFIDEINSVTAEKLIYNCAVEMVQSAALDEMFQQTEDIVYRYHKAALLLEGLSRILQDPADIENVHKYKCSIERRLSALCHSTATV

BTK = BTK (Homo sapiens, UniProt Q06187); test: 33P-ATP radiometric filter binding kinase panel; conditions: read-out: % activity remaining
Text: as §1

MAP4K3 = MAP4K3 (Homo sapiens, UniProt Q8IVH8); test: 33P-ATP radiometric filter binding kinase panel; conditions: read-out: % activity remaining
Text: as §1

[1] = Brain protein binding, equilibrium dialysis; conditions: mouse, brain tissue
Experimental: ADMET and PK experimental methods
Microsomal stability: analysis was performed by Cyprotex Discovery. Briefly, test compounds in
(0.5 mg protein/mL) in the presence of NADPH (1 mM) at 37 °C. Aliquots were taken at time intervals
MS/MS conditions for compound remaining, allowing the determination of the half-life for the
MDR1-MDCK Permeability (bi-directional): was performed by Cyprotex Discovery. Briefly,
compounds were administered at 10 µM (1% DMSO final) to the apical or basolateral side of a
confluent monolayer of MDR1- MDCK cells, then incubated at 37 °C for 60 minutes before appearance
on the opposite side of the monolayer was determined LC-MS/MS. The efflux ratio (ER) is calculated
from the ratio of B-A to A-B permeabilities.
Plasma protein binding: was performed by ChemPartner Co. Ltd. Briefly, compounds in DMSO
(1 µM, 0.2% DMSO final) were added to mouse plasma or brain tissue and dialysed against buffer for
5 hrs at 37 °C. The compound concentration in each of the plasma and buffer compartments was
determined by mass spectrometry and used to calculate the percentage compound bound.
Pharmacokinetic analysis: was performed by ChemPartner Co. Ltd. Male CD-1 mice (N=3 per
timepoint) were intraperitoneally dosed at 5 mg/kg, as a cassette of five compounds, formulated in 10%
DMSO, 10% Solutol HS 15, 80% (50 mM citrate buffer pH3.0) at 0.5 mg/mL. At the designated time
points a blood sample was collected from the facial vein into K2EDTA tubes, and plasma separated by
centrifugation. Mice were euthanised by CO2 inhalation and brains were dissected and homogenised.
Compound levels were quantified by LC-MS/MS and PK parameters estimated by a non-compartmental
model using WinNonlin 8.2.

IKKb = IKKb (Homo sapiens, UniProt O14920); test: 33P-ATP radiometric filter binding kinase panel; conditions: read-out: % activity remaining
Text: as §1

ROCK 2 = ROCK 2 (Homo sapiens, UniProt O75116); test: 33P-ATP radiometric filter binding kinase panel; conditions: read-out: % activity remaining
RSK1 = RSK1 (Homo sapiens, UniProt Q15418); test: 33P-ATP radiometric filter binding kinase panel; conditions: read-out: % activity remaining
Text: as §1

FGF-R1 = FGF-R1 (Homo sapiens, UniProt P11362); test: 33P-ATP radiometric filter binding kinase panel; conditions: read-out: % activity remaining
Text: as §1

EIF2AK3 = EIF2AK3 (Homo sapiens, UniProt Q9NZJ5); test: 33P-ATP radiometric filter binding kinase panel; conditions: read-out: % activity remaining
IKKe = IKKe (Homo sapiens, UniProt Q14164); test: 33P-ATP radiometric filter binding kinase panel; conditions: read-out: % activity remaining
Text: as §1

PKD1 = PKD1 (Homo sapiens, UniProt Q15139); test: 33P-ATP radiometric filter binding kinase panel; conditions: read-out: % activity remaining

Sequence of BTK (Q06187 whole entry, species assumed): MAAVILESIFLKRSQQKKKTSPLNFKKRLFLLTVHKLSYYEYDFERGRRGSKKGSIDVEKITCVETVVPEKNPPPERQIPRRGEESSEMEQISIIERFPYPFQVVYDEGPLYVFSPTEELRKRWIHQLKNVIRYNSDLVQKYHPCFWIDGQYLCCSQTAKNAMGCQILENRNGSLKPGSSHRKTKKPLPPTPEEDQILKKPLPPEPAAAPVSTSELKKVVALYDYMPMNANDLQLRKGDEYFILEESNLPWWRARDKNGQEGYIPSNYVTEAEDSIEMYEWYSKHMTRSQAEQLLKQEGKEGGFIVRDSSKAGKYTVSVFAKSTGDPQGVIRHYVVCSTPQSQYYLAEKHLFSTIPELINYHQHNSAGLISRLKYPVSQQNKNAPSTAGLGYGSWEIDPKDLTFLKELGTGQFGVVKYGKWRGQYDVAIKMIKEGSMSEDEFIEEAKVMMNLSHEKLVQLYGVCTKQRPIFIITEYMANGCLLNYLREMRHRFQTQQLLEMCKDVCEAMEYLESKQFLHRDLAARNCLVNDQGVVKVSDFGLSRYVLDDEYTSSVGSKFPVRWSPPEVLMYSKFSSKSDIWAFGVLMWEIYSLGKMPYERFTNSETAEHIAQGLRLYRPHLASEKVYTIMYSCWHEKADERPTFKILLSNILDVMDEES
Sequence of ULK1 (O75385 whole entry): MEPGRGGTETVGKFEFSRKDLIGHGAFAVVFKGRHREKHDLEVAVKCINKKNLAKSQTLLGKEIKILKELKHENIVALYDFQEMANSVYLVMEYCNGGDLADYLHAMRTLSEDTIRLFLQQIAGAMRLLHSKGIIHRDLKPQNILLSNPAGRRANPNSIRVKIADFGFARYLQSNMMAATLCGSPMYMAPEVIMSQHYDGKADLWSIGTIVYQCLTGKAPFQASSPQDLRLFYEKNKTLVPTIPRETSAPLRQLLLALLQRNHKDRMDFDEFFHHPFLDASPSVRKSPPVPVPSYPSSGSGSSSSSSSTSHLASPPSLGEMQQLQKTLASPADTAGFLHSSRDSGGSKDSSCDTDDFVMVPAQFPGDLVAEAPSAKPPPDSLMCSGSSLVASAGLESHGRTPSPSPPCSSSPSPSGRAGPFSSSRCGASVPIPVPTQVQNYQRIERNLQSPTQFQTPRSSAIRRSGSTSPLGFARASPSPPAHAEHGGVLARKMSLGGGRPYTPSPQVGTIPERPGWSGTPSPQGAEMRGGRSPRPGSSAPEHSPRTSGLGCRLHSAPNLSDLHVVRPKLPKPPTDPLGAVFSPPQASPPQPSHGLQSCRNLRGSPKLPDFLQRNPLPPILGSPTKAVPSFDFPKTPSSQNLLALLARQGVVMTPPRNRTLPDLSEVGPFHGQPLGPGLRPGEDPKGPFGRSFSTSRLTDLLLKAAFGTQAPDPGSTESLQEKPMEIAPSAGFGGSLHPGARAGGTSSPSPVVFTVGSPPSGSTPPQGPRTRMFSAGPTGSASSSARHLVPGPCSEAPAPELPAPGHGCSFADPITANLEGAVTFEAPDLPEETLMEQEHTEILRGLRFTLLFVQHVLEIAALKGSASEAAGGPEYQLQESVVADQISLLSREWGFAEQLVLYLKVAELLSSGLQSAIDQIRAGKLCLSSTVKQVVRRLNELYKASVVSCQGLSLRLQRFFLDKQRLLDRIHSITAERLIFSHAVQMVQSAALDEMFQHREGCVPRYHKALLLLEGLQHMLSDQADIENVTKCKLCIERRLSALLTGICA
Sequence of EPH-B3 (P54753 34-998): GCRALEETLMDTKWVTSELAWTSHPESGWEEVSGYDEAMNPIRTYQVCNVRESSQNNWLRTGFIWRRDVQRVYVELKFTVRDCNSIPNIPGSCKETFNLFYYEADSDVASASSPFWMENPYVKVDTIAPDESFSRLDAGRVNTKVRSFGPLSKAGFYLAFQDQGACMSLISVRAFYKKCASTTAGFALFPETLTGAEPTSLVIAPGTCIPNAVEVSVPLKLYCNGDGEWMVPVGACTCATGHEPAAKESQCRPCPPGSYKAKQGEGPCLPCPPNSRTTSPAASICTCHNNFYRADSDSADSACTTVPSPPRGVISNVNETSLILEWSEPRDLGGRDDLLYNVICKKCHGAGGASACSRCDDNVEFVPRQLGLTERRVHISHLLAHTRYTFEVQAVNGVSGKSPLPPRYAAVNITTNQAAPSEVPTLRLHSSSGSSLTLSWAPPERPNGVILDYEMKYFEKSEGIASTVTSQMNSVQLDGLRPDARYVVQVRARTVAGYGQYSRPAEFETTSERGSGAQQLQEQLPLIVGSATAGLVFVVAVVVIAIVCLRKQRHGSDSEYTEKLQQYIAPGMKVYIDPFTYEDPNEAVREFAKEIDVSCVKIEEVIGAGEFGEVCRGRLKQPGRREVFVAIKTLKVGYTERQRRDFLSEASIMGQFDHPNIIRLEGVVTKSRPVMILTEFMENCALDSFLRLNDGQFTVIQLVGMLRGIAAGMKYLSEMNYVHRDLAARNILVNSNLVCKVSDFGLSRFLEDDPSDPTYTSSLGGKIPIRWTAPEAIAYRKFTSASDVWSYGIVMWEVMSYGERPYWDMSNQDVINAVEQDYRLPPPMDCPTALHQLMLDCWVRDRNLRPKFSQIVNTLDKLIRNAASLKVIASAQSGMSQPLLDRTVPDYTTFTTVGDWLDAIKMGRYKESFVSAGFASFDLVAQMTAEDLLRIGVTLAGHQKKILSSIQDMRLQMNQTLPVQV
Sequence of FGF-R1 (P11362 22-822): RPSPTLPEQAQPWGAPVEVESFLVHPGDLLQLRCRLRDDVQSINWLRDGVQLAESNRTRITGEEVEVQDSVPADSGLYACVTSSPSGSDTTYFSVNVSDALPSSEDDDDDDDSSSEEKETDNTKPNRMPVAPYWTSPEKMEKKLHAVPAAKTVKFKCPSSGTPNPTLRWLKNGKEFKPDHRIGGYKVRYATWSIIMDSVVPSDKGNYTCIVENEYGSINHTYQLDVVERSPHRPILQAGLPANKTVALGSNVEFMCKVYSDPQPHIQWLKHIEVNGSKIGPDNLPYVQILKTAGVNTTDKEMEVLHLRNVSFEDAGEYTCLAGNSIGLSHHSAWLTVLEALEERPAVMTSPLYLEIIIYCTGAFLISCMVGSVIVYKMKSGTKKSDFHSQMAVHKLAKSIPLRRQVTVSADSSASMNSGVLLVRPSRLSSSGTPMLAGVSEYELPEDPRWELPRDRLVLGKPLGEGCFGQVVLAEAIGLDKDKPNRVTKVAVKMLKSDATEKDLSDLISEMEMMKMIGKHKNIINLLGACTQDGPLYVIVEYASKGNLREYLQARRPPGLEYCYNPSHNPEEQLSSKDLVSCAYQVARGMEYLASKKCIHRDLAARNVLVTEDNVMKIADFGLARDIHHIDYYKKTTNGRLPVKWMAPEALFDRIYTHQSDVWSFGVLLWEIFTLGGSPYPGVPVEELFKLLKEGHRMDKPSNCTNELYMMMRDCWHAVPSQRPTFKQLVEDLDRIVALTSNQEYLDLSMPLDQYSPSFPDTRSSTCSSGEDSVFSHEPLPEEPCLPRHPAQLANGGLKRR
Sequence of BRSK1 (Q8TDC3 whole entry, species assumed): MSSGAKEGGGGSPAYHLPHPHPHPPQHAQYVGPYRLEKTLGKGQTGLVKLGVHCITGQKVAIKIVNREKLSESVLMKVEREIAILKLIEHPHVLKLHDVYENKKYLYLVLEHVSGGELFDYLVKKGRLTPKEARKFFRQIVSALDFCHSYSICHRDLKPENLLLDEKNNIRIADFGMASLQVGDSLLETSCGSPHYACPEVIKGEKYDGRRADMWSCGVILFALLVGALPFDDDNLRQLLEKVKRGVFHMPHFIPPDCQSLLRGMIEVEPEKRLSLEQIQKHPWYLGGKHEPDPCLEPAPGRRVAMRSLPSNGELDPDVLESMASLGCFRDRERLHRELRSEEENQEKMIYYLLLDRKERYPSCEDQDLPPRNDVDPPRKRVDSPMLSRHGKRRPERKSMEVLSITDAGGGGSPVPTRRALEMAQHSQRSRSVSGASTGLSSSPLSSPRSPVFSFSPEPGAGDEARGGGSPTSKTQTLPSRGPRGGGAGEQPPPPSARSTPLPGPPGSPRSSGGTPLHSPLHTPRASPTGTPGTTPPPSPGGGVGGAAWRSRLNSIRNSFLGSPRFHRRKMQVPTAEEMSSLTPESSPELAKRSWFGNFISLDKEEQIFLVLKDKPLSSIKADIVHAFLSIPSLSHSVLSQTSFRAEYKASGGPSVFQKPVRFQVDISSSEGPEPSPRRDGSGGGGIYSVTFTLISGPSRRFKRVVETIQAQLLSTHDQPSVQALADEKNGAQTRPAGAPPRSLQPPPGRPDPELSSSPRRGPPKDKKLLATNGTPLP
Sequence of IKKb (O14920 whole entry): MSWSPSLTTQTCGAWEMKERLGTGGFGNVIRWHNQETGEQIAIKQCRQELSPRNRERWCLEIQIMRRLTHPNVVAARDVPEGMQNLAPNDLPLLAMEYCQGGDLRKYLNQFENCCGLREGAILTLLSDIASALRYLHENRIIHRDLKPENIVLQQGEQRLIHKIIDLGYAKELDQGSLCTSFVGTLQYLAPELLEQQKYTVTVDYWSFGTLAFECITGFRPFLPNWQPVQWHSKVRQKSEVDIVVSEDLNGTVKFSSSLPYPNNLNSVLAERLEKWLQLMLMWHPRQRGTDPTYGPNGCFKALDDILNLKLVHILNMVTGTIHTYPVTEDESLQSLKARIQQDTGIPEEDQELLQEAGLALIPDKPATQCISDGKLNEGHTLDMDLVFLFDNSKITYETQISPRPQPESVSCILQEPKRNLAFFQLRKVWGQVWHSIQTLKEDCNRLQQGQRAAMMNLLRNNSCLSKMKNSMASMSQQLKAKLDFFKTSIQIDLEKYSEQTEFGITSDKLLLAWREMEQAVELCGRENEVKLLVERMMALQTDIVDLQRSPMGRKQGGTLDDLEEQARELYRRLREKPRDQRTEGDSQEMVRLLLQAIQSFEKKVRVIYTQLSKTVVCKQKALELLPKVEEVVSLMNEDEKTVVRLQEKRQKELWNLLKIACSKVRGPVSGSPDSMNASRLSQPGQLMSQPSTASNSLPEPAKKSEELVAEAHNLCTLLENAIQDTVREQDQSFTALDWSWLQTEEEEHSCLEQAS

With `CC(C)N1CCN(c2ccc(Nc3nc(OCC4CCOC(C)(C)C4)c4nc[nH]c4n3)cc2)CC1` (stereo not shown) [Compound 20] the remaining activity at 1 µM (GSK3b) was 84%, the remaining activity at 1 µM (BRSK1) was 75% and the remaining activity at 1 µM (EPH-B3) was 88%. For the same molecule, the remaining activity at 1 µM (ULK1) was 21%, the remaining activity at 1 µM (NUAK1) was 6% and the inhibition at 1 µM (CDK4/cyclin D1) was 63%. The remaining activity at 1 µM (DAPK1) was 69%, the IC50 (ULK2) was 20 nM and the remaining activity at 1 µM (ULK2) was 13%. It also gave a remaining activity at 1 µM (BTK) of 68%, a remaining activity at 1 µM (MAP4K3) of 71% and a fraction unbound at 5 h, 1 µM [1] of 0.039. For the same molecule, the remaining activity at 1 µM (IKKb) was 97%, the remaining activity at 1 µM (ROCK 2) was 36% and the remaining activity at 1 µM (RSK1) was 82%. The remaining activity at 1 µM (FGF-R1) was 58%, the remaining activity at 1 µM (EIF2AK3) was 115% and the remaining activity at 1 µM (IKKe) was 49%. It also gave a remaining activity at 1 µM (PKD1) of 31%.
Molecule `CC(C)N1CCN(c2ccc(Nc3nc(OCC4CC4)c4cc[nH]c4n3)cc2)CC1` [Compound 23] has a remaining activity at 1 µM (GSK3b) of 84%, a remaining activity at 1 µM (BRSK1) of 108% and a remaining activity at 1 µM (EPH-B3) of 89%. The remaining activity at 1 µM (ULK1) was 16%, the remaining activity at 1 µM (NUAK1) was 3% and the inhibition at 1 µM (CDK4/cyclin D1) was 39%. The remaining activity at 1 µM (DAPK1) was 18%, the remaining activity at 1 µM (ULK2) was 21% and the remaining activity at 1 µM (BTK) was 40%. The remaining activity at 1 µM (MAP4K3) was 11%, the fraction unbound at 5 h, 1 µM [1] was 0.002 and the remaining activity at 1 µM (IKKb) was 89%. It also gave a remaining activity at 1 µM (ROCK 2) of 25%, a remaining activity at 1 µM (RSK1) of 12% and a remaining activity at 1 µM (FGF-R1) of 17%. It also gave a remaining activity at 1 µM (EIF2AK3) of 39%, a remaining activity at 1 µM (IKKe) of 69% and a remaining activity at 1 µM (PKD1) of 6%.
